# Experiments:
# Tg.AC mice = experiment: UV-induced skin tumorigenesis in v-rasHa transgenic Tg.AC mice; format: in vivo, mouse
# Source text: Animals. Homozygous v-rasHa transgenic mice on an FVB/N background were used in in vivo experiments. To obtain keratinocytes with genetic ablation of Erbb2, loxP sites were inserted flanking exon 2 of Erbb2 such that splicing from exon1 to downstream introns upon Cre recombinase expression creates a frameshift mutation. Mice were maintained in our animal facility and provided with Purina lab chow (Nestle Purina PetCare, St. Louis, Mo.) and water ad libitum. The dorsal skin was clipped one day before treatment using electric clippers (Wahl, Sterling, II) and shaved on the day of treatment with a Remington Microscreen shaver (Madison, N.C.). […] The Ultraviolet-B TL 40W/12 RS bulbs (Philips, Somerset, N.J.) used emitted approximately 30% UVA, 70% UVB and <1% UVC, with a total output of 470 μW/cm^2, as measured with radiometric photodetector probes (Newport, Irvine, Calif.). For tumor experiments, homozygous Tg.AC mice were treated and exposed twice with an interval of 7 d. Tumor number was counted and tumor volume measured weekly using calipers. Skin-fold thickness was measured using calipers (Mitutoyo, Aurora, Ill.) to lightly pinch the dorsal skin. All animal procedures were performed in accordance with American Association of Laboratory Animal Care guidelines and approved by Creighton University's Institutional Animal Care and Use Committee.
# Statistical methods. The tumor experiment was analyzed using two-way ANOVA. Statistical significance in other experiments was assessed using two-way ANOVA or Student's t-test with Bonferroni post-test. All experiments, excluding the tumor experiment, were replicated several times and consistent results obtained.
# The skin tumorigenesis experiment was performed in v-ras^Ha transgenic Tg.AC mice because of their enhanced sensitivity to UV-induced skin tumorigenesis (13; 52). […] While the vehicle-treated mice continued to accrue tumors throughout the duration of the experiment, the AG825-treated group reached a plateau in tumor number by 7 weeks after the first UV exposure. By the end of the experiment, mean tumor volume was also 70% less in the AG825-treated group when compared to the vehicle control. Representative tumors from each treatment were examined histologically and all were benign squamous papillomas with similar differentiation status.
# Upon activation, Erbb2 heterodimerizes with either EGFR or Erbb3 to transduce signals. Support for the hypothesis that Erbb2 increases skin carcinogenesis comes from our investigations of the functions of its dimerization partner EGFR. A tumor study was conducted to assess the role of EGFR in the clonal expansion of transformed cells to form benign tumors in the skin of v-ras^Ha transgenic Tg.AC mice. Inhibition of EGFR with the tyrphostin inhibitor AG1478 decreased the number of tumors that developed by about 50% in UV-exposed v-rasHa transgenic mice. Mean tumor volume was 80% less upon inhibition of EGFR-mediated signaling when compared to, UV-exposed and vehicle-treated controls.
# [1] = system: p38 kinase, ERK1/2 and JNK1/2; experiment: MAPK activity in keratinocytes; format: cell-based, mouse; settings: after sham UV
# Source text: Inactivation of Cdc25a can occur through activation of a member of the p38 MAPK signaling pathway, which is also activated by Erbb2, but this regulation of Cdc25a remains controversial (24). […] Other mechanisms for the inactivation of Cdc25a, including sequestration in the cytoplasm and phosphorylation by p38 kinase following UV exposure or osmotic shock, have been reported (25).
# Erbb2 = target: T1, Erbb2 (Mus musculus, UniProt P70424); experiment: UV-induced activation (phosphorylation) of Erbb2; format: cell-based
# T1 construct: endogenous in cells; host or cells: primary newborn mouse keratinocytes; also mouse epidermis/skin extracts
# Source text: For some experiments, the epidermis was separated from the skin by the heat shock method before homogenization. Keratinocytes were lysed in the same buffer. Membranes were immunoblotted with antibodies recognizing Erbb2, phospho-Erbb2 (Tyr^1248), EGFR, phospho-EGFR (Tyr^992), phospho-EGFR (Tyr^1173), phosphotyrosine, and Tall (Calbiochem, San Diego, Calif.). Binding of horseradish peroxidase-conjugated secondary antibodies (Cell Signaling, Beverly, Mass.) was visualized using chemiluminescent reagents (Pierce, Rockford, Ill.) and autoradiography. Densitometry was performed using IDScan software (Scanalytics, Fairfax, Va.).
# Several methods were developed to regulate Erbb2 expression and activity both in vitro and in vivo.
# T1 sequence (P70424 23-1256): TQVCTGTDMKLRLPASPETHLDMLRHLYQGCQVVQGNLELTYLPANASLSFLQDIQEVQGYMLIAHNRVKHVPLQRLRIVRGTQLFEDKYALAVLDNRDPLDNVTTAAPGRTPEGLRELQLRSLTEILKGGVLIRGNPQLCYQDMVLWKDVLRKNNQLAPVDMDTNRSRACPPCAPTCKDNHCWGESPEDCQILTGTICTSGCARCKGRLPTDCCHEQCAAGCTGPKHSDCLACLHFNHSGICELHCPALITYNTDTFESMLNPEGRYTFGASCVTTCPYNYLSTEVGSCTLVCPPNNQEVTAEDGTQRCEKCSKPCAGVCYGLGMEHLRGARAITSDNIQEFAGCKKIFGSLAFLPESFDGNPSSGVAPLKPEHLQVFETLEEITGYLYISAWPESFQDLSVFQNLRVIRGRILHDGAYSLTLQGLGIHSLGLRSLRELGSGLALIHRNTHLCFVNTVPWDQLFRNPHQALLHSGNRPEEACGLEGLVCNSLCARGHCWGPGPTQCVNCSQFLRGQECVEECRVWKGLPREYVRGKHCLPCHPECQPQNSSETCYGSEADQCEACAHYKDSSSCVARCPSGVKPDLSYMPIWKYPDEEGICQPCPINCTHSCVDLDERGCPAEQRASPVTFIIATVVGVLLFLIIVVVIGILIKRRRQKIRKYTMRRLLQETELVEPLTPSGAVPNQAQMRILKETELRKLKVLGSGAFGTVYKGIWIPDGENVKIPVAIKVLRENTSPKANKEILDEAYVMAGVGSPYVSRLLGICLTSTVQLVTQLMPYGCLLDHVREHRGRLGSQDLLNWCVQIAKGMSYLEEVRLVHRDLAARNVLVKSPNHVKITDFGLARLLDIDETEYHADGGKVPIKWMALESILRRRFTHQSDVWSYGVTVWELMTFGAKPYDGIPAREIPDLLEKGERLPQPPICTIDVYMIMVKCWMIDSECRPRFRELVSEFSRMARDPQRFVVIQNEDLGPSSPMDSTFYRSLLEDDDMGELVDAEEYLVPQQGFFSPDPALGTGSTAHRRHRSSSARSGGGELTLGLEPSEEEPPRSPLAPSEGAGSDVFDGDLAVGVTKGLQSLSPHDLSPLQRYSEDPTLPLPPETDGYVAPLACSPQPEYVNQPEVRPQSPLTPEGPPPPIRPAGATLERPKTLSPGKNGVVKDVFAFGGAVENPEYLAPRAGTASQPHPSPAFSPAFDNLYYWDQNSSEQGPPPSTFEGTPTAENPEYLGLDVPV
smiles,measurement,setting,value
COc1cc(/C=C(\C#N)C(N)=O)cc(CSc2nc3ccccc3s2)c1O [AG825],tumors per mouse by the end of the experiment,Tg.AC mice; 4 mg AG825 topically 2 h prior to each of two 10 kJ/m^2 UV exposures 7 d apart,15
same,tumor multiplicity decreased,Tg.AC mice; 12 weeks later,more than half
same,tumor volume decreased,Tg.AC mice; 12 weeks later,more than half
same,time by which tumor number reached a plateau,Tg.AC mice; after the first UV exposure,≤ 7 weeks
same,mean tumor volume less than vehicle control,Tg.AC mice; by the end of the experiment,70%
same,development of tumors blocked,"Tg.AC mice; inhibition of Erbb2 prior to UV irradiation, vs vehicle",more than half
same,UV-induced carcinogenesis (FIG. 6),Tg.AC mice; topical treatment 2 h prior to UV irradiation,suppress
same,"p38 kinase, ERK1/2 and JNK1/2 activity",[1],decrease
same,duration of the inhibition of Erbb2,Erbb2,less than 24 h
same,activation of Erbb2 by UV,Erbb2; both in vivo and in vitro,blocked
same,UV-induced phosphorylation of Erbb2 at Tyr1248,Erbb2; cultured keratinocytes,inhibited

# Source: patent US20080119530A1, “Method for treatment and prevention of ultraviolet light induced skin pathologies” (priority 2006, published 2008)
